From patent US6855843B2, “Inhibitors of α4 mediated cell adhesion” (Tanabe Seiyaku Co., Ltd., priority 1998, dated 2005)

The compounds below were run against T1, α4β7 (adhesion of RPMI cells to CS-1) (Homo sapiens, UniProt P13612+P26010) (assay: RPMI-CS-1 cell adhesion assay). Conditions: adhesion of RPMI B-cell line (expresses α4β7) to CS-1 peptide coated microwells; read-out: RPMI-CS-1 IC50 value range.
T1 construct: endogenous in cells
T1 sequence (P13612 34-1032): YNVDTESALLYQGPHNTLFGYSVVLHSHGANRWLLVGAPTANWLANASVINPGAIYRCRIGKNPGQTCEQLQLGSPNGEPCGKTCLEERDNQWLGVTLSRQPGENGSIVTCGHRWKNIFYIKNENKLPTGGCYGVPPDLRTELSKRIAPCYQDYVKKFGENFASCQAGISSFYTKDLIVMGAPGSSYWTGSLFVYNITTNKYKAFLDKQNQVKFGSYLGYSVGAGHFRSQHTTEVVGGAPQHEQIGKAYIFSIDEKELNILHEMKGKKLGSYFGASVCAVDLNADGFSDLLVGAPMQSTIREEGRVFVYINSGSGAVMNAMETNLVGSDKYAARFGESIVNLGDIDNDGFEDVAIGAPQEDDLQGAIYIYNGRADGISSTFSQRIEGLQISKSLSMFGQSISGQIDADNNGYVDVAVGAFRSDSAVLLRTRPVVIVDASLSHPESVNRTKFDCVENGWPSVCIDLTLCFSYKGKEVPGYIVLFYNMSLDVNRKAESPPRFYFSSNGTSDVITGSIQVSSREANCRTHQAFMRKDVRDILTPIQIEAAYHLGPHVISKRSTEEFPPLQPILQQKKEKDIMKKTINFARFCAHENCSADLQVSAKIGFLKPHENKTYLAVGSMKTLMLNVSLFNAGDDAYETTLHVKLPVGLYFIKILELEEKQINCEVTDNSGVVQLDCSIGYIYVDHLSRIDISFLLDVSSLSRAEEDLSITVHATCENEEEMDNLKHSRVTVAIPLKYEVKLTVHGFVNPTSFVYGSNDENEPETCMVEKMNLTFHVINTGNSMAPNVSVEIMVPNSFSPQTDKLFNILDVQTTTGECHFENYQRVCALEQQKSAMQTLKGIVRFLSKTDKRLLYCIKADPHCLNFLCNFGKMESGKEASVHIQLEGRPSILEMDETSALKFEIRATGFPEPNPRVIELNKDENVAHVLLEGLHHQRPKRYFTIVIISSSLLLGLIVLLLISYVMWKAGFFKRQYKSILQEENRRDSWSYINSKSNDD
T1 sequence (P26010 20-798): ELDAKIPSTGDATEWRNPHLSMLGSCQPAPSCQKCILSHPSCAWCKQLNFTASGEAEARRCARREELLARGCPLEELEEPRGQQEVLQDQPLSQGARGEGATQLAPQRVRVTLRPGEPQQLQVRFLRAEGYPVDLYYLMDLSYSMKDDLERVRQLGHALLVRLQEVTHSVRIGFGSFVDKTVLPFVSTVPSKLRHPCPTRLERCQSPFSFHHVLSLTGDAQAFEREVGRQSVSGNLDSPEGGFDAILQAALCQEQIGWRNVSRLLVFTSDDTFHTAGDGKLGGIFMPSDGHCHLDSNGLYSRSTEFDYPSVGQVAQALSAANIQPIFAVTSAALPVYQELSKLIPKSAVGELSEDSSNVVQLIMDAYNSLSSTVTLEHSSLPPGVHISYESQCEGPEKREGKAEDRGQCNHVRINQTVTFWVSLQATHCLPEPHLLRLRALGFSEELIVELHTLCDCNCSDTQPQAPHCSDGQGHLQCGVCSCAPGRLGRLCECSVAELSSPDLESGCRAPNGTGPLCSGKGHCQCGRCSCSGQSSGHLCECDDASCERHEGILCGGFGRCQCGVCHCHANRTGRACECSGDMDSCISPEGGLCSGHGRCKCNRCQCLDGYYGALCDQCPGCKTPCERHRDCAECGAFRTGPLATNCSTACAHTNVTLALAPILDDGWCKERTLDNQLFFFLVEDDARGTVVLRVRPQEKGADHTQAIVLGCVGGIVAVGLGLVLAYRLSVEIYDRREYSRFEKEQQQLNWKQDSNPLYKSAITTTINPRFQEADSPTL
Type: cell-based

SMILES | IC50
COc1ccccc1-c1ccc(C[C@H](NC(=O)c2ccccc2C(F)(F)F)C(=O)O)cc1 [Example 88] | 1000 to 5000 nM
COc1cccc(OC)c1-c1ccc(C[C@H](NC(=O)c2c(Cl)cccc2Cl)C(=O)O)cc1C(C)O (stereo partly shown) [Example 131] | < 300 nM
COc1ccccc1-c1ccc(C[C@H](NC(=O)c2ccc(NC(C)=O)cc2Cl)C(=O)O)cc1 [Example 67, N-[2-Chloro-4-(acetylamino)benzoyl]-4-(2-methoxyphenyl)-L-phenylalanine] | 300 to 1000 nM
COC(=O)[C@H](Cc1ccc(-c2ccccc2CNCc2ccccc2)cc1)NC(=O)c1c(Cl)cccc1Cl [Example 114] | 300 to 1000 nM
COc1ccccc1-c1ccc(C[C@H](NC(=O)c2c(Cl)cccc2Cl)C(=O)O)cc1NC(C)=O [Example 80] | < 300 nM
COc1ccccc1-c1ccc(C[C@H](NC(=O)c2ccc([N+](=O)[O-])cc2Cl)C(=O)O)cc1 [Example 62, N-(2-Chloro-4-nitrobenzoyl)-4-(2-methoxyphenyl)-L-phenylalanine] | < 300 nM
COc1ccccc1-c1ccc(C[C@H](NC(=O)c2ccc(NS(C)(=O)=O)cc2Cl)C(=O)O)cc1 [Example 64, N-[2-Chloro-4-(methanesulfonylamino)benzoyl]-4-(2-methoxyphenyl)-L-phenylalanine] | < 300 nM
O=C(NCc1ccccc1)c1ccccc1-c1ccc(C[C@H](NC(=O)c2c(Cl)cccc2Cl)C(=O)O)cc1 [Example 53, N-(2,6-Dichlorobenzoyl)-4-[2-(N-benzylcarbamoyl)phenyl]-L-phenylalanine] | 1000 to 5000 nM
COC(=O)[C@H](Cc1ccc(-c2ccccc2OCC#N)cc1)NC(=O)c1c(Cl)cccc1Cl [Example 33, N-(2,6-Dichlorobenzoyl)-4-[2-(cyanomethoxy)phenyl]-L-phenylalanine methyl ester] | 300 to 1000 nM
COCc1ccccc1-c1ccc(C[C@H](NC(=O)c2c(Cl)cccc2Cl)C(=O)O)cc1 [Example 51, N-(2,6-Dichlorobenzoyl)-4-[2-(methoxymethyl)phenyl]-L-phenylalanine] | 300 to 1000 nM
COc1ccccc1-c1ccc(C[C@H](NC(=O)c2ccc(C(=O)OC(C)(C)C)cc2Cl)C(=O)O)cc1 [Example 176, N-[2-Chloro-4-(tert-butoxycarbonyl)benzoyl]-4-(2-methoxyphenyl)-L-phenylalanine] | 300 to 1000 nM
Cc1noc(C)c1COc1ccccc1-c1ccc(C[C@H](NC(=O)c2c(Cl)cccc2Cl)C(=O)O)cc1 [Example 41] | 1000 to 5000 nM
NC(=O)Nc1ccccc1-c1ccc(C[C@H](NC(=O)c2c(Cl)cccc2Cl)C(=O)O)cc1 [Example 28, N-(2,6-Dichlorobenzoyl)-4-(2-ureidophenyl)-L-phenylalanine] | 300 to 1000 nM
O=C(NCCO)c1ccccc1-c1ccc(C[C@H](NC(=O)c2c(Cl)cccc2Cl)C(=O)O)cc1 [Example 56, N-(2,6-Dichlorobenzoyl)-4-[2-[N-(2-hydroxyethyl)carbamoyl]phenyl]-L-phenylalanine] | 300 to 1000 nM
CCCc1ccc(C(=O)N[C@@H](Cc2ccc(-c3ccccc3OC)cc2)C(=O)O)cc1 [Example 97] | 300 to 1000 nM
O=C(NS(=O)(=O)c1ccccc1-c1ccc(C[C@H](NC(=O)c2c(Cl)cccc2Cl)C(=O)O)cc1)c1ccccc1 [Example 18, N-(2,6-Dichlorobenzoyl)-4-[2-(N-benzoylsulfamoyl)phenyl]-L-phenylalanine] | 300 to 1000 nM
Nc1cccc(-c2ccc(C[C@H](NC(=O)c3c(Cl)cccc3Cl)C(=O)O)cc2)c1 [Example 122] | 1000 to 5000 nM
O=C(N[C@@H](Cc1ccc(-c2ccccc2O)cc1)C(=O)O)c1c(Cl)cccc1Cl [Example 30, N-(2,6-Dichlorobenzoyl)-4-(2-hydroxyphenyl)-L-phenylalanine] | 300 to 1000 nM
CN(C)C(=O)c1ccccc1-c1ccc(C[C@H](NC(=O)c2c(Cl)cccc2Cl)C(=O)O)cc1 [Example 58, N-(2,6-Dichlorobenzoyl)-4-[2-(N,N-dimethylcarbamoyl)phenyl]-L-phenylalanine] | 300 to 1000 nM
COC(=O)[C@H](Cc1ccc(-c2cccs2)cc1)NC(=O)c1c(Cl)cccc1Cl [Example 4A, N-(2,6-Dichlorobenzoyl)-4-(2-thienyl)-L-phenylalanine methyl ester] | 1000 to 5000 nM

Further lines, results first:

IC50 | SMILES
< 300 nM | CCN(CC)Cc1cc(OC)c(-c2ccc(C[C@H](NC(=O)c3c(Cl)cccc3Cl)C(=O)O)cc2)c(OC)c1 [Example 132]
300 to 1000 nM | O=C(N[C@@H](Cc1ccc(-c2c(Cl)cccc2Cl)cc1)C(=O)O)c1c(Cl)cccc1Cl [Example 141]
< 300 nM | COc1cccc(OC)c1-c1ccc(C[C@H](NC(=O)c2ccccc2C(C)C)C(=O)O)cc1 [Example 280]
< 300 nM | CS(=O)(=O)c1ccccc1-c1ccc(C[C@H](NC(=O)c2c(Cl)cccc2Cl)C(=O)O)cc1 [Example 152B, N-(2,6-Dichlorobenzoyl)-4-[2-(methylsulfonyl)phenyl]-L-phenyl-alanine]
< 300 nM | COc1ccccc1-c1ccc(C[C@H](NC(=O)c2ccc(NS(=O)(=O)c3ccc(C)cc3)cc2Cl)C(=O)O)cc1 [Example 188, N-[2-Chloro-4-(tosylamino)benzoyl]-4-(2-methoxyphenyl)-L-phenylalanine]
< 300 nM | COc1cc(CN2CCOCC2)cc(OC)c1-c1ccc(C[C@H](NC(=O)c2c(Cl)cccc2Cl)C(=O)O)cc1 [Example 133]
< 300 nM | COc1ccccc1-c1ccc(C[C@H](NC(=O)c2cc(NS(=O)(=O)C(F)(F)F)ccc2Cl)C(=O)O)cc1 [Example 180, N-[2-Chloro-5-[(trifluoromethanesulfonyl)amino]-benzoyl]-4-(2-methoxyphenyl)-L-phenylalanine]
< 300 nM | COc1cc(CNCCO)cc(OC)c1-c1ccc(C[C@H](NC(=O)c2c(Cl)cccc2Cl)C(=O)O)cc1 [Example 246]
< 300 nM | COc1cccc(OC)c1-c1ccc(C[C@H](NC(=O)c2c(Cl)cc(NS(=O)(=O)C(F)(F)F)cc2Cl)C(=O)O)cc1 [Example 184, N-[2,6-Dichloro-4-[(trifluoromethanesulfonyl)amino]benzoyl]-4-(2,6-dimethoxyphenyl)-L-phenylalanine]
1000 to 5000 nM | COc1cccc(OC)c1-c1ccc(C[C@H](NC(=O)c2cccc([N+](=O)[O-])c2)C(=O)O)cc1 [Example 284]
< 300 nM | CN(C)CCOc1ccc2c(c1-c1ccc(C[C@H](NC(=O)c3c(Cl)cccc3Cl)C(=O)O)cc1)OCO2 [Example 234, N-(2,6-Dichlorobenzoyl)-4-[2,3-methylenedioxy-6-[2-(N,N-dimethylamino)ethoxy]phenyl]-L-phenylalanine]
< 300 nM | COc1cc(CN2CCS(=O)(=O)CC2)cc(OC)c1-c1ccc(C[C@H](NC(=O)c2c(Cl)cccc2Cl)C(=O)O)cc1 [Example 263A, N-(2,6-dichlorobenzoyl)-4-[2,6-dimethoxy-4-(thiomorpholinomethyl)phenyl]-L-phenylalanine S,S-dioxide]
< 300 nM | O=C(N[C@@H](Cc1ccc(-c2c(O)ccc3c2OCO3)cc1)C(=O)O)c1c(Cl)cccc1Cl [Example 236, N-(2,6-Dichlorobenzoyl)-4-(2,3-methylenedioxy-6-hydroxyphenyl)-L-phenylalanine]
> 5000 nM | COc1cccc(OC)c1-c1ccc(C[C@H](NC(=O)c2c(Cl)cccc2Cl)C(=O)OC(C)C)cc1 [Example 275, N-(2,6-Dichlorobenzoyl)-4-(2,6-dimethoxyphenyl)-L-phenylalanine i-propyl ester]
